From patent US11434232B2, “ATR inhibitor and application thereof” (WUXI BIOCITY BIOPHARMACEUTICS CO., LTD., priority 2018, dated 2022) come the findings set out here.

The test system of one series is tumor cell line LoVo. Description: In vitro cell viability test (CellTiter-Glo), LoVo cell proliferation inhibition. The format is cell-based. The conditions noted are these: Homo sapiens. The procedure: In this experiment, inhibitory effect of the compounds on cell proliferation was investigated by testing influence on cell viability in vitro in tumor cell line LoVo.
CellTiter-Glo Luminescence Cell Viability Test
The following protocols were performed according to instruction of PromegaCellTiter-Glo Luminescence cell viability test Kit (Promega-G7573). • (1) Thawing CellTiter-Glo buffer and allowing it to acclimate to room temperature. • (2) Allowing CellTiter-Glo substrate to acclimate to room temperature. • (3) Adding CellTiter-Glo buffer to a bottle of CellTiter-Glo substrate to dissolve the substrate to prepare CellTiter-Glo working solution. • (4) Vortexing slowly to full dissolution. • (5) Removing the cell culture plate and balancing it to room temperature for 30 min. • (6) Adding 50 μL (equivalent to half volume of cell culture medium in each well) of CellTiter-Glo working solution to each well, wrapping the cell plate with aluminum foil to protect from light. • (7) Shaking the culture plate on an orbital shaker for 2 min to induce cell lysis. • (8) Placing the culture plate at room temperature for 10 min to stabilize the luminescence signal. • (9) Detecting the luminescence signal on SpectraMax i3× of Molecular Devices plate reader. Data Analysis
The following formula was used to calculate the inhibition rate of the test compound (Inhibition rate, IR): IR(%)=(1−(RLU Compound−RLU Blank control)/(RLU Vehicle control−RLU Blank control))*100%.
The inhibition rates of different concentrations of compounds were calculated in Excel, and GraphPad Prism software was used to make the inhibition curve and calculate relevant parameters, including the minimum inhibition rate, the maximum inhibition rate and IC50.

Another series has as its target human ATR kinase (Homo sapiens (Human), UniProt Q13535). The series can be described thus: In vitro evaluation of inhibitory activity on human ATR kinase (HTRF, ATR/ATRIP(h), GST-cMyc-p53 substrate). The conditions noted are these: 50 nM GST-cMyc-p53, 30 min room temperature. It is filed as biochemical. How it is done:
IC50 values were determined to evaluate the inhibitory activity of the tested compounds on human ATR kinase.
ATR/ATRIP(h) was incubated in assay buffer containing 50 nM GST-cMyc-p53 and Mg/ATP (according to concentration required). The reaction was initiated by adding Mg/ATP mixture. After incubating for 30 min at room temperature, a stop solution containing EDTA to was added to terminate the reaction. Finally, detecting buffer containing d^2-labeled anti-GST monoclonal antibody and europium-labeled anti-phospho Ser15 antibody against phosphorylated p^53 were added. Then the plate was read in time-resolved fluorescence mode and homogeneous time resolution was performed.
The fluorescence (HTRF) signal was determined according to the formula HTRF=10000×(Em665 nm/Em620 nm).
IC50 data was analyzed using XLFit version 5.3 (ID Business Solutions). Non-linear regression analysis was used to fit the sigmoidal dose response (variable slope) curve.
In general terms: Time-resolved FRET reads energy transfer from a long-lived donor to a nearby acceptor.

Series [1] in a line: Pharmacokinetic properties in vivo in female Balb/c Nude mice. The conditions noted are these: for AUC(0-t) / clearance / half-life / C0 / Vd / Cmax: mouse, plasma; for C0: drug concentration at 0 min; for Vd: read-out: Vdss; for F: oral bioavailability, 10 mg/kg oral vs 1 mg/kg IV. More on the design: species or system mouse. How it is done: Experimental method: The purpose of this study was to determine the pharmacokinetic parameters of the compounds and calculate the oral bioavailability in female Balb/c Nude mice.
The project involved 6 female Balb/c Nude mice. 3 mice were administered intravenously at a dose of 1 mg/kg, and plasma samples were collected at 0 h (before administration) and 0.0833, 0.25, 0.5, 1, 2, 4, 6, 8 and 24 h after administration, other 3 mice were given by oral gavage at a dose of 10 mg/kg or 25 mg/kg, and plasma samples were collected at 0 h (before dosing) and 0.5, 1, 2, 3, 4, 6, 8, 24 h after administration. Then LC/MS/MS analysis was performed for the collected samples and data was collected. The collected analysis data was calculated for relevant pharmacokinetic parameters with Phoenix WinNonlin 6.2.1 software.

Series [2] deals with human colorectal cancer LoVo cell subcutaneous xenograft. Description: In vivo efficacy in colorectal cancer LoVo CDX model. More on the design: species or system mouse. The conditions noted are these: 25 mg/kg orally twice a day, day 17 of administration, vs vehicle control group. The source says: LoVo is a colorectal adenocarcinoma tumor cell line with MRE11A mutation (MRE11A is a key component of DNA double-strand break repairing ATM signaling pathway), which is sensitive to ATR inhibitor. In this experiment, the colorectal cancer LoVo CDX model was used to verify the inhibitory effect of ATR inhibitor as monotherapy on tumors with defect in ATM signaling pathway.
Human colorectal cancer LoVo cells (ECACC, CatLog: 87060101), in vitro monolayer culture, culture conditions: Ham's F-12 medium with 10% fetal bovine serum, 100 U/mL penicillin, 100 μg/mL streptomycin and 2 mM glutamine, 37° C., 5% CO2 culture. General passage with trypsin-EDTA digestion was performed twice a week. When the cell saturation was 80%-90%, the cells were collected, counted, and inoculated. 0.1 mL (10×10^6) of LoVo cells were subcutaneously inoculated into the right back of each nude mouse. When the mean tumor volume reached 173 mm^3, grouping and administration were initiated.
25.51 mg of WX15 was weighed and dissolved in 0.500 mL of DMSO, which were added with 2.000 mL of propylene glycol and 2.500 mL of deionized water, vortexed for homogeneous mixing, adjusted to PH=6.0, to obtain a clear solution. The preparing processes of Compound WX42, Compound WX45, Compound WX46 were referred to Compound WX15.
Dosage: All test compounds were administered orally at 25 mg/kg twice a day, with an interval of 8 h in a day.
A vernier caliper was used to measure the tumor diameter twice a week. The formula for calculating the tumor volume: V=0.5a×b^2, a and b represent the long and short diameters of the tumor, respectively. Antitumor efficacy of the compound was evaluated by TGI (%) or relative tumor proliferation rate T/C (%). Relative tumor proliferation rate T/C (%)=TRTV/CRTV×100% (TRTV: mean RTV value of treatment group; CRTV: mean RTV value of negative control group). The relative tumor volume (relative tumor volume, RTV) was calculated based on the tumor measurement results and the calculation formula was RTV=Vt/V0, where V0 is the tumor volume measured at grouping administration (i.e. D0), Vt is the tumor volume at a measurement, and data on the same day was used for TRTV and CRTV.
TGI (%) reflects the tumor growth inhibition rate. TGI (%)=[1−(mean tumor volume at the end of administration in a treatment group−mean tumor volume at the beginning of administration in this treatment group)/(mean tumor volume at the end of treatment in the solvent control group−mean tumor volume at the beginning of treatment in the solvent control group)]×100%.

By IC50 is commonly meant the concentration that gives 50% inhibition. A word on the AUC(0-t): it is the area under the concentration-time curve up to a stated or last time point. The low end stands for low exposure, the high end for high exposure. As a reminder, the clearance is a measure of how efficiently the substance is removed, as volume per time. A higher clearance goes with efficient removal. One may read the half-life as the time in which the quantity being followed falls by half. In general, Cmax refers to the maximum level reached in the sampled fluid or tissue.

Chain of human ATR kinase (Q13535 whole entry): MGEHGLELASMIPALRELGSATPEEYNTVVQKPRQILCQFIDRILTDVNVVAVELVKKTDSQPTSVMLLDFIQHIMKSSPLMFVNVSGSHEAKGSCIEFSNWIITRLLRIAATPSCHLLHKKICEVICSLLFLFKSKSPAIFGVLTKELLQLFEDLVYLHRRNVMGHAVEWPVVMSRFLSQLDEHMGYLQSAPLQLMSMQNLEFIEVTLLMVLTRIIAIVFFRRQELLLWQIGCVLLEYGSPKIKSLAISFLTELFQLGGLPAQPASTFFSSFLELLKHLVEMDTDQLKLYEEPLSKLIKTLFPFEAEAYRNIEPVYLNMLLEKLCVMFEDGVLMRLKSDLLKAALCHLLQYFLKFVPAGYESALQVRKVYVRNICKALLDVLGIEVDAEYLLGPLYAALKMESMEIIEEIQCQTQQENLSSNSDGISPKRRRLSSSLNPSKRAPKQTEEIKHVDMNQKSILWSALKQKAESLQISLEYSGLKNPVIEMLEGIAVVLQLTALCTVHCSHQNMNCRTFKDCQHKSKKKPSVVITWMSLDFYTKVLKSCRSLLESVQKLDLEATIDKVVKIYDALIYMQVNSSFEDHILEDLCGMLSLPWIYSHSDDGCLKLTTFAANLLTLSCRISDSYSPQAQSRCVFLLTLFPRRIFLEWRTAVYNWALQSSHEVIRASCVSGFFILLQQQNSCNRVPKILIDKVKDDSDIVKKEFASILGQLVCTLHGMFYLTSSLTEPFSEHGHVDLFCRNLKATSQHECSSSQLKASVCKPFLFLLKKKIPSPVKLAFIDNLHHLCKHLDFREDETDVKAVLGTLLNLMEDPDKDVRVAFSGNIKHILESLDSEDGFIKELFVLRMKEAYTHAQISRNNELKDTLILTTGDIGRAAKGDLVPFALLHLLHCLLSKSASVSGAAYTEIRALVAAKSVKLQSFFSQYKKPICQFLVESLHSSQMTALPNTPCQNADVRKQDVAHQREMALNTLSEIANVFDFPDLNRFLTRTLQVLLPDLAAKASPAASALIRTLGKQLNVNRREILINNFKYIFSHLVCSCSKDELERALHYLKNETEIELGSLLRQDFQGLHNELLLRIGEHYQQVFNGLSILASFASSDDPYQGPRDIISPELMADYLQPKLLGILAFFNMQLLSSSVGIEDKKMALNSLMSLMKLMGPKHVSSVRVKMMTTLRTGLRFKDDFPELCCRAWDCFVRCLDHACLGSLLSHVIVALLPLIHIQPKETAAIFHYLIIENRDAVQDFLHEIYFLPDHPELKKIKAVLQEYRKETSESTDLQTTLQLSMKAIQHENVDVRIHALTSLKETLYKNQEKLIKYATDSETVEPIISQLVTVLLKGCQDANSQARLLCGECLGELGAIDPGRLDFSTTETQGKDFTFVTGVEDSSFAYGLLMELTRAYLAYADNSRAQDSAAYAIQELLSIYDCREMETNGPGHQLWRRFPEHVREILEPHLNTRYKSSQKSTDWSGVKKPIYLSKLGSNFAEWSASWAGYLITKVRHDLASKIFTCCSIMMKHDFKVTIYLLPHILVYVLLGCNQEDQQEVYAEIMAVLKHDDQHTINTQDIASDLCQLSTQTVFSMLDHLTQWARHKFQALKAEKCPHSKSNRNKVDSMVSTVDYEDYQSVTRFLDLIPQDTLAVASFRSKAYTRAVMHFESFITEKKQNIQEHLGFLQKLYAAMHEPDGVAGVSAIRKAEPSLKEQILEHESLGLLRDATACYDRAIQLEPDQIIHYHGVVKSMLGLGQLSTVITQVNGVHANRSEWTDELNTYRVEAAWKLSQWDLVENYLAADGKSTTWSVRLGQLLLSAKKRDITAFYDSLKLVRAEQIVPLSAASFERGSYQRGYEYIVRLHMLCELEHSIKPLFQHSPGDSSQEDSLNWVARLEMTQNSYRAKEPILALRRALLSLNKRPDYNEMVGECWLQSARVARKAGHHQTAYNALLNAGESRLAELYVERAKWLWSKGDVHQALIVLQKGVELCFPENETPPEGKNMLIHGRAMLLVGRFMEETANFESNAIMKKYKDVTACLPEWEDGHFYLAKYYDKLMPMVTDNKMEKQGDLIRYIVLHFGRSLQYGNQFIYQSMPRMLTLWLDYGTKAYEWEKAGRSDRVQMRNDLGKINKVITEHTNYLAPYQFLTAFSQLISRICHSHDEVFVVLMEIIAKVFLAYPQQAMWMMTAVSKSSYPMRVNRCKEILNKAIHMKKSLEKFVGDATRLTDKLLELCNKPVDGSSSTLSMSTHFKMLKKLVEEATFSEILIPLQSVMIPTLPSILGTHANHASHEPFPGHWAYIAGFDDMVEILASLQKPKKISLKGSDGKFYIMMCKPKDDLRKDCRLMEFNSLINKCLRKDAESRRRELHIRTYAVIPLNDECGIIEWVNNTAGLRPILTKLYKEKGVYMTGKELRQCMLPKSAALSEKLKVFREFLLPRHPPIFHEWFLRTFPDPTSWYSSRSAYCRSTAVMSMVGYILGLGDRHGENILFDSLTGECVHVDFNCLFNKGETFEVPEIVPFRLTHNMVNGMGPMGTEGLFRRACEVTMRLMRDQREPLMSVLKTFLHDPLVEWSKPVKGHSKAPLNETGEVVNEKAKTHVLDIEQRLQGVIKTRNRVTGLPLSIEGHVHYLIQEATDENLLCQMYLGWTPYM
Chain of human ATR kinase (Q8WXE1 whole entry partner): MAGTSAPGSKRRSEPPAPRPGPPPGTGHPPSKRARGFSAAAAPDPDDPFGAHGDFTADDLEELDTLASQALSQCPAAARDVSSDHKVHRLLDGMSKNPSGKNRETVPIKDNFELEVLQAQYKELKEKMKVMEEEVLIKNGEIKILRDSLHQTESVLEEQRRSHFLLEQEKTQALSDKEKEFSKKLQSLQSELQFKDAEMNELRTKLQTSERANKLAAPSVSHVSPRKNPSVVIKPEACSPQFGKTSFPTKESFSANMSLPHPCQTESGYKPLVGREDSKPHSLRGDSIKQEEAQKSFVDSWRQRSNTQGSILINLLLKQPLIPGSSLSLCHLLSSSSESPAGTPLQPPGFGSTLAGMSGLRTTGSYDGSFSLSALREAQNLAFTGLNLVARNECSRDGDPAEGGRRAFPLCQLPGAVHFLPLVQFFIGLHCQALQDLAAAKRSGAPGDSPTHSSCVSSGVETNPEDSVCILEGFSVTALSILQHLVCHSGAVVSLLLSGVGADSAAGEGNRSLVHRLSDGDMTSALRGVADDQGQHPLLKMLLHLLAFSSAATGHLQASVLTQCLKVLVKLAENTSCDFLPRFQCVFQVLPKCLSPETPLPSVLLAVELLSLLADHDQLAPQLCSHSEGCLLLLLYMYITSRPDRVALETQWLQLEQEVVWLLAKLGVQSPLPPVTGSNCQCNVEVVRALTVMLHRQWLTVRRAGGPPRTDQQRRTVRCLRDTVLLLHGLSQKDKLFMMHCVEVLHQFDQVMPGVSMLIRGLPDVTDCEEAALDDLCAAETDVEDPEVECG

As for `C[C@@H]1COCCN1c1cc(C2([S@](C)(=N)=O)CC2)nc(-c2ccnc3[nH]ccc23)n1` [AZD6738, reference compound], in the series with tumor cell line LoVo, 820 nM corresponded to half-maximal inhibition (IC50).
In turn, `Cc1nnc(C)n1-c1cc(N2CCOC[C@H]2C)nc(-c2cccc3[nH]ccc23)n1` [WX45] registered an IC50 against human ATR kinase of 69 nM. Besides, the midpoint of inhibition in the series with tumor cell line LoVo, the IC50, lay at 750 nM. In series [1] (1 mg/kg IV), this compound had an AUC(0-t) of 0.88 µM·h, a clearance of 48.3 mL/min/kg, a half-life of 0.99 h and a C0 of 1580 nM. For the same compound, in series [1] (1 mg/kg IV), the Vd is 2.59 L/kg. Besides, in series [1] (10 mg/kg oral gavage), the AUC(0-t) was 10.9 µM·h, the highest level (Cmax) was 7720 nM and the half-life is 1.69 h. This compound registered a F in series [1] of 123.0%. In addition, in series [2], the “T/C (relative tumor proliferation rate)” value is 32.3% and the “TGI (tumor growth inhibition rate)” value was 79.9%.
For `C[C@@H]1COCCN1c1cc(-c2ccnn2C)nc(-c2ccnc3[nH]ccc23)n1` [WX15], the IC50 at human ATR kinase was 159 nM. The same compound came in with an IC50 in the series with tumor cell line LoVo of 410 nM. In addition, in series [1] (1 mg/kg IV), the AUC(0-t) turned out to be 0.905 µM·h, the clearance was determined as 47 mL/min/kg, the half-life was 0.78 h and the C0 was 1960 nM. Further, in series [1] (1 mg/kg IV), the Vd was 2.21 L/kg. In series [1] (10 mg/kg oral gavage), this compound showed an AUC(0-t) of 8.75 µM·h, a Cmax of 4560 nM and a half-life of 1.23 h. The F in series [1] was 96.0%. In addition, in series [2], the “T/C (relative tumor proliferation rate)” value is 46.7% and the “TGI (tumor growth inhibition rate)” value is listed as 66.8%.
For `Cc1nnn(C2CC2)c1-c1cc(N2CCOC[C@H]2C)nc(-c2ccnc3[nH]ccc23)n1` [WX47], the IC50 was 64 nM against human ATR kinase and 760 nM in the series on tumor cell line LoVo.
As to `Cc1cnn(C)c1-c1cc(N2CCOC[C@H]2C)nc(-c2cc(CO)cc3[nH]ccc23)n1` [WX42], the IC50 against human ATR kinase was 29 nM. In the series with tumor cell line LoVo, this compound registered an IC50 of 510 nM. In series [1] (1 mg/kg IV), this compound had an area under the curve AUC(0-t) of 1.09 µM·h, a clearance of 34.3 mL/min/kg, a half-life of 2.57 h and a C0 of 1960 nM. In series [1] (1 mg/kg IV), the Vd was 2.21 L/kg. Besides, in series [1] (10 mg/kg oral gavage), the AUC(0-t) was 15 µM·h, the Cmax worked out at 6500 nM and the half-life was 2.02 h. Further, in series [1], the F is 129.0%. In addition, in series [2], the “T/C (relative tumor proliferation rate)” value was 27.8% and the “TGI (tumor growth inhibition rate)” value is given as 90.7%.
Take `Cc1nnn(C)c1-c1cc(N2CCOC[C@H]2C)nc(-c2ccnc3[nH]ccc23)n1` [WX34]: at human ATR kinase, the IC50 was 69 nM. Also, in series [1] (1 mg/kg IV), the AUC(0-t) came out at 0.787 µM·h, the clearance stood at 53.9 mL/min/kg, the half-life was 1.22 h and the C0 is 1260 nM. Also, the Vd in series [1] (1 mg/kg IV) stood at 3.72 L/kg. Also, in series [1] (10 mg/kg oral gavage), the AUC(0-t) came out at 5.68 µM·h, the Cmax was determined as 2860 nM and the half-life was 1.16 h. In addition, the F in series [1] is recorded as 71.7%.
On human ATR kinase, `Cc1nnc(C)n1-c1cc(N2CCOC[C@H]2C)nc(-c2cc(F)cc3[nH]ccc23)n1` [WX46] returned an IC50 of 31 nM. Further, 350 nM corresponded to half-maximal inhibition in the series with tumor cell line LoVo (IC50). In series [1] (25 mg/kg oral gavage), this compound showed an AUC(0-t) of 26.2 µM·h, a Cmax of 10600 nM and a half-life of 0.892 h. In series [2], the “T/C (relative tumor proliferation rate)” value is listed as 43.8% and the “TGI (tumor growth inhibition rate)” value amounted to 79.9%.
